According to US20220251124A1, “3,5-BIS(PHENYL)-1H-HETEROARYL DERIVATIVES AS MEDICAMENTS” (INSTITUTE OF BIOTECHNOLOGY CAS, V.V.I., priority 2019, published 2022):
pIC50: −log10 of the molar value. Read-outs that look alike come from different tables or passages of the source.

Columns and labels:
Format in all cases: cell-based
OVCAR = assay: annexin V/PI staining, cell death induction, 48 hrs
Method: (§1) This effect seems to be based mainly on the cytostatic effect of compound 1. To define the ability to kill cells, cell death-inducing potency (cytotoxic efficacy) of DFX and compound 1 have been tested via annexin V/PI staining commonly used as a measure of apoptotic/necrotic cell death. Briefly, cells were seeded in 12-well plate at 100,000 per well, incubated with the selected compounds for 48 hours, then floating cells were spun, adherent cells trypsinized and spun as well followed by the staining with AnnexinV-FITC and PI probes. Cells were then washed with PBS and measured via Fluorescence Activated Sorter.

BxPC3 [1] = assay: as above; conditions: 5 μM
Method: as §1

non-malignant HFP1 cells = assay: as above; conditions: for dead cells (AnnexinV/PI): 48 hrs, HFP1
Method: as §1

non malignant cells MRC5 = assay: as above
Method: as §1

MCF7 = assay: as above
Method: as §1
Since compound 1 is an iron chelator, we have evaluated the effect of pre-loading compound 1 with iron at a 2:1 ratio and then applying it to the cells, followed by measurement of cell death using the Annexin V/PI staining as in example 4.

MCF7 cells = assay: crystal violet assay, cellular viability (cytostatic and cytotoxic effect), 48 hrs; conditions: Homo sapiens
Method: (§2) Compound 1 and a comparative compound deferasirox (DFX) were tested in their efficacy to kill/suppress proliferation of malignant breast cancer MCF7 cells representing estrogen-dependent type of breast cancer. Briefly, 10.000 cells per well were seeded in a 96-well plate on one day and the next day the tested compounds were added and incubated with the cells for 48 hrs. The cells were then fixed with 4% paraformaldehyde, stained with 0.05% crystal violet, washed with PBS, and solubilized in 1% SDS. The absorbance of the plate at 595 nm was then measured, quantifying the number of viable cells.

UPF4D leukemia cell line [2] = assay: AnnexinV/PI assay, cell death induction, 48 hrs
Method: as §1
(§3) This effect seems to be based mainly on the cytostatic effect of compound 1. To define the ability to kill cells, cell death-inducing potency (cytotoxic efficacy) of DFX and compound 1 have been tested via annexin V/PI staining commonly used as a measure of apoptotic/necrotic cell death (see example 15). […] Compound 1 killed cancer cells with effects higher by almost 3 orders of magnitude than those of deferasirox. Such results are unprecedented and very unexpected.

UPF1H leukemia cell line [3] = assay: AnnexinV/PI assay, cell death induction, 48 hrs
Method: as §1, §3

UPF9T leukemia cell line [4] = assay: AnnexinV/PI assay, cell death induction, 48 hrs
Method: as §1, §3

[5] = test system: UPF16A leukemia cell line; assay: AnnexinV/PI assay, cell death induction, 48 hrs
Method: as §1, §3

MDA-MB-231 cells = assay: crystal violet assay, cellular viability, 48 hrs; conditions: for pIC50: MDA-MB-231, crystal violet
Method: as §2
Compound 1 and the comparative compound deferasirox were tested in their efficacy to kill/suppress proliferation of malignant MDA-MB-231 cancer cells representing hard to treat triple negative breast cancer. The procedure is identical to that in example 12.

UPF4D leukemia cell line [6] = assay: alamarBlue Cell Viability Reagent, 48 hrs
Method: (§4) Compound 1 and a comparative compound deferasirox (DFX) were tested in their efficacy to kill/suppress proliferation of several leukemia cells. Briefly, 10.000 cells per well were seeded in a 96-well plate on one day and the next day the tested compounds were added and incubated with the cells for 48 hrs. Cellular viability was determined as the ability to reduce the probe alamarBlue™ Cell Viability Reagent.

UPF1H leukemia cell line [7] = assay: alamarBlue Cell Viability Reagent, 48 hrs
Method: as §4

UPF9T leukemia cell line [8] = assay: alamarBlue Cell Viability Reagent, 48 hrs
Method: as §4

[9] = test system: UPF16A leukemia cell line; assay: alamarBlue Cell Viability Reagent, 48 hrs
Method: as §4

BxPC3 [10] = assay: crystal violet assay, cellular viability, 48 hrs; conditions: Homo sapiens, BXPC-3
Method: as §2
(§5) Compounds 1, 2 and the comparative compound deferasirox were tested in their efficacy to suppress proliferation/kill several malignant cell lines of breast, pancreatic and ovarian origin (MCF7, MDA-MB-231, BxPC3 and OVCAR3). The procedure is identical to that in example 12.

OVCAR3 = assay: crystal violet assay, cellular viability, 48 hrs; conditions: Homo sapiens, OVCAR-3
Method: as §2, §5

T47D = assay: crystal violet assay, cellular viability, 48 hrs; conditions: Homo sapiens, T47D (parental/control)
Method: [The source words this procedure for another cell line and reports this cell line under the same test.] as §2, §5

`O=C(NCCCCCCCCCC[P+](c1ccccc1)(c1ccccc1)c1ccccc1)c1ccc(-n2nc(-c3ccccc3O)nc2-c2ccccc2O)cc1` [Compound 1, (10-(4-(3,5-bis(2-hydroxyphenyl)-1H-1,2,4-triazol-1-yl)benzamido)decyl) triphenylphosphonium Chloride] was tested, and the “dead cells (AnnexinV/PI)” value (OVCAR; 1 μM) was 31.6 (10.3) %, the “dead cells (AnnexinV/PI)” value (OVCAR; 2 μM) was 39.7 (9.8) % and the “dead cells (AnnexinV/PI)” value (OVCAR; 5 μM) was 52.2 (17.5) %. The “dead cells (AnnexinV/PI)” value (BxPC3 [1]) was 37.8 (16.1) %, the “dead cells (AnnexinV/PI)” value (non-malignant HFP1 cells; 1 μM) was 12.3 (0.9) % and the “dead cells (AnnexinV/PI)” value (non-malignant HFP1 cells; 2 μM) was 13.6 (1.4) %. The “dead cells (AnnexinV/PI)” value (non-malignant HFP1 cells; 5 μM) was 23.3 (1.1) %, the “concentrations at which toxic effect could be detected” value (non-malignant HFP1 cells; non-malignant HFP1 cells) was “higher than 5 μM” and the “dead cells (AnnexinV/PI)” value (non malignant cells MRC5; 1 μM) was 14.5 (1.7) %. The “dead cells (AnnexinV/PI)” value (non malignant cells MRC5; 2 μM) was 19.6 (1.9) %, the “dead cells (AnnexinV/PI)” value (non malignant cells MRC5; 5 μM) was 15.0 (2.0) % and the “dead cells (AnnexinV/PI)” value (MCF7; 5 μM, +Fe^+3 (pre-loaded with iron at a 2:1 ratio)) was 24.3 (1.1) %. For the same compound, the “dead cells (AnnexinV/PI)” value (MCF7; 5 μM, alone) was 38.5 (8.8) %, the “dead cells (AnnexinV/PI)” value (MCF7; 10 μM, +Fe^+3 (pre-loaded with iron at a 2:1 ratio)) was 25.7 (2.5) % and the “dead cells (AnnexinV/PI)” value (MCF7; 10 μM, alone) was 46.6 (7.8) %. For the same compound, the viability at 0.03 µM (MCF7 cells; 0.030 μM, MCF7, read-out: viable cells compared to non-treated controls) was 33.7%, the viability at 0.1 µM (MCF7 cells; 0.100 μM, MCF7, read-out: viable cells compared to non-treated controls) was 23.6% and the viability at 0.3 µM (MCF7 cells; 0.300 μM, MCF7, read-out: viable cells compared to non-treated controls) was 14.8%. The viability at 1 µM (MCF7 cells; 1 μM, MCF7, read-out: viable cells compared to non-treated controls) was 7.28%, the viability at 3 µM (MCF7 cells; 3 μM, MCF7, read-out: viable cells compared to non-treated controls) was 5.2% and the viability at 10 µM (MCF7 cells; 10 μM, MCF7, read-out: viable cells compared to non-treated controls) was 2.31%. The viability at 30 µM (MCF7 cells; 30 μM, MCF7, read-out: viable cells compared to non-treated controls) was 0.69%, the pIC50 (MCF7 cells; MCF7 (parental/control), crystal violet, read-out: IC50) was 8.10 and the pIC50 (MCF7 cells; MCF7, crystal violet, read-out: IC50 (suppression of proliferation to 50%)) was 8.10. The “dead cells (AnnexinV/PI)” value (UPF4D leukemia cell line [2]; 0.1 μM) was 87.3 (13.4) %, the “dead cells (AnnexinV/PI)” value (UPF4D leukemia cell line [2]; 1 μM) was 96.7 (3.9) % and the “dead cells (AnnexinV/PI)” value (UPF1H leukemia cell line [3]; 0.1 μM) was 85.3 (10.9) %. For the same compound, the “dead cells (AnnexinV/PI)” value (UPF1H leukemia cell line [3]; 1 μM) was 98.3 (0.6) %, the “dead cells (AnnexinV/PI)” value (UPF9T leukemia cell line [4]; 0.1 μM) was 88.2 (4.8) % and the “dead cells (AnnexinV/PI)” value (UPF9T leukemia cell line [4]; 1 μM) was 99.0 (0.6) %. For the same compound, the “dead cells (AnnexinV/PI)” value ([5]; 0.1 μM) was 45.4 (16.2) %, the “dead cells (AnnexinV/PI)” value ([5]; 1 μM) was 71.8 (20.2) % and the viability at 0.03 µM (MDA-MB-231 cells; Homo sapiens, 0.030 μM, MDA-MB-231, read-out: viable cells compared to non-treated controls) was 71.1%. The viability at 0.1 µM (MDA-MB-231 cells; Homo sapiens, 0.100 μM, MDA-MB-231, read-out: viable cells compared to non-treated controls) was 52.5%, the viability at 0.3 µM (MDA-MB-231 cells; Homo sapiens, 0.300 μM, MDA-MB-231, read-out: viable cells compared to non-treated controls) was 37.4% and the viability at 1 µM (MDA-MB-231 cells; Homo sapiens, 1 μM, MDA-MB-231, read-out: viable cells compared to non-treated controls) was 27.8%. The viability at 3 µM (MDA-MB-231 cells; Homo sapiens, 3 μM, MDA-MB-231, read-out: viable cells compared to non-treated controls) was 18.2%, the viability at 10 µM (MDA-MB-231 cells; Homo sapiens, 10 μM, MDA-MB-231, read-out: viable cells compared to non-treated controls) was 0.29% and the viability at 30 µM (MDA-MB-231 cells; Homo sapiens, 30 μM, MDA-MB-231, read-out: viable cells compared to non-treated controls) was 0.51%. The pIC50 (MDA-MB-231 cells; Homo sapiens, MDA-MB-231, 48 h) was 6.88, the pIC50 (MDA-MB-231 cells; Homo sapiens, MDA-MB-231, 48 h, text) was 6.88 and the pIC50 (MDA-MB-231 cells) was 6.89. It also gave a viability at 0.03 µM (UPF4D leukemia cell line [6]; 0.030 μM, 48 hrs, UPF4D, read-out: viable cells compared to non-treated controls) of 90.1%, a viability at 0.1 µM (UPF4D leukemia cell line [6]; 0.100 μM, 48 hrs, UPF4D, read-out: viable cells compared to non-treated controls) of 49.8% and a viability at 0.3 µM (UPF4D leukemia cell line [6]; 0.300 μM, 48 hrs, UPF4D, read-out: viable cells compared to non-treated controls) of 0.56%. It also gave a viability at 3 µM (UPF4D leukemia cell line [6]; 3 μM, 48 hrs, UPF4D, read-out: viable cells compared to non-treated controls) of 0.74%, a viability at 10 µM (UPF4D leukemia cell line [6]; 10 μM, 48 hrs, UPF4D, read-out: viable cells compared to non-treated controls) of 0.1% and a pIC50 (UPF4D leukemia cell line [6]; 48 h) of 7.05. It also gave a viability at 0.03 µM (UPF1H leukemia cell line [7]; 0.030 μM, 48 hrs, read-out: viable cells compared to non-treated controls) of 94.1%, a viability at 0.1 µM (UPF1H leukemia cell line [7]; 0.100 μM, 48 hrs, read-out: viable cells compared to non-treated controls) of 81.9% and a viability at 0.3 µM (UPF1H leukemia cell line [7]; 0.300 μM, 48 hrs, read-out: viable cells compared to non-treated controls) of 31.1%. It also gave a viability at 3 µM (UPF1H leukemia cell line [7]; 3 μM, 48 hrs, read-out: viable cells compared to non-treated controls) of 5.8%, a viability at 10 µM (UPF1H leukemia cell line [7]; 10 μM, 48 hrs, read-out: viable cells compared to non-treated controls) of 0.04% and a pIC50 (UPF1H leukemia cell line [7]; 48 h) of 6.64. For the same compound, the viability at 0.03 µM (UPF9T leukemia cell line [8]; 0.030 μM, 48 hrs, UPF9T, read-out: viable cells compared to non-treated controls) was 44.8%, the viability at 0.1 µM (UPF9T leukemia cell line [8]; 0.100 μM, 48 hrs, UPF9T, read-out: viable cells compared to non-treated controls) was 10.5% and the viability at 0.3 µM (UPF9T leukemia cell line [8]; 0.300 μM, 48 hrs, UPF9T, read-out: viable cells compared to non-treated controls) was 2%. For the same compound, the viability at 3 µM (UPF9T leukemia cell line [8]; 3 μM, 48 hrs, UPF9T, read-out: viable cells compared to non-treated controls) was 6.7%, the viability at 10 µM (UPF9T leukemia cell line [8]; 10 μM, 48 hrs, UPF9T, read-out: viable cells compared to non-treated controls) was 6.9% and the pIC50 (UPF9T leukemia cell line [8]; 48 h) was 7.70. The viability at 0.03 µM ([9]; 0.030 μM, 48 hrs, UPF16A, read-out: viable cells compared to non-treated controls) was 75.7%, the viability at 0.1 µM ([9]; 0.100 μM, 48 hrs, UPF16A, read-out: viable cells compared to non-treated controls) was 50.2% and the viability at 0.3 µM ([9]; 0.300 μM, 48 hrs, UPF16A, read-out: viable cells compared to non-treated controls) was 30.8%. It also gave a viability at 3 µM ([9]; 3 μM, 48 hrs, UPF16A, read-out: viable cells compared to non-treated controls) of 4%, a viability at 10 µM ([9]; 10 μM, 48 hrs, UPF16A, read-out: viable cells compared to non-treated controls) of 0.31% and a pIC50 ([9]; 48 h) of 6.96. For the same compound, the pIC50 (BxPC3 [10]) was 6.82, the pIC50 (OVCAR3) was 6.81 and the pIC50 (T47D) was 7.51.
